{
  "source": "patent US9611248B2",
  "about": "“Chemical compounds” (Syngenta Participations AG, priority 2013, dated 2017)",
  "data": [
    {"system": "a variety of test species", "assay": "Post-emergence herbicidal activity", "assay_type": "in vivo", "parameters": "key to ABUTH (Abutilon theophrasti) damage score / AMARE (Amaranthus retroflexus) damage score / ALOMY (Alopecurus myosuroides) damage score / ECHCG (Echinochloa crus-galli) damage score / ZEAMX (Zea mays) damage score / SOLNI (Solanum nigrum) damage score: 0 = no damage to plant, 5 = total damage to plant", "conditions": "rate 1000 g/ha, evaluated after 13 days", "protocol": "Seeds of a variety of test species were sown in standard soil in pots. After 8 days cultivation (post-emergence) under controlled conditions in a glasshouse (at 24/16° C., day/night; 14 hours light; 65% humidity), the plants were sprayed with an aqueous spray solution derived from the formulation of the technical active ingredient in acetone/water (50:50) solution containing 0.5% Tween 20 (polyoxyethelyene sorbitan monolaurate, CAS RN 9005-64-5). The test plants were then grown in a glasshouse under controlled conditions (at 24/16° C., day/night; 14 hours light; 65% humidity) and watered twice daily. After 13 days, the test was evaluated (5=total damage to plant; 0=no damage to plant, NC=not captured).", "values": [
      {"smiles": "CCCC1=C(Cl)C(O)N(c2cc(C(F)(F)F)ccn2)C1=O", "note": "(centres unmarked) [AA40]", "ABUTH (Abutilon theophrasti) damage score": 2, "ALOMY (Alopecurus myosuroides) damage score": 2, "AMARE (Amaranthus retroflexus) damage score": 4, "ECHCG (Echinochloa crus-galli) damage score": 4, "SETFA (Setaria faberi) damage score": 1, "ZEAMX (Zea mays) damage score": 1},
      {"smiles": "CC(C)(C)C1=C(Cl)C(O)N(c2cc(C(F)(F)F)ccn2)C1=O", "note": "(centres unmarked) [AA41]", "ABUTH (Abutilon theophrasti) damage score": 0, "ALOMY (Alopecurus myosuroides) damage score": 0, "AMARE (Amaranthus retroflexus) damage score": 0, "ECHCG (Echinochloa crus-galli) damage score": 3, "SETFA (Setaria faberi) damage score": 0, "ZEAMX (Zea mays) damage score": 2},
      {"smiles": "CC(C)C1=C(Cl)C(O)N(c2cc(C(F)(F)F)ccn2)C1=O", "note": "(centres unmarked) [AA42]", "ABUTH (Abutilon theophrasti) damage score": 3, "ALOMY (Alopecurus myosuroides) damage score": 1, "AMARE (Amaranthus retroflexus) damage score": 3, "ECHCG (Echinochloa crus-galli) damage score": 0, "SETFA (Setaria faberi) damage score": 0, "ZEAMX (Zea mays) damage score": 1},
      {"smiles": "CCC1=C(Cl)C(O)N(c2cc(C(F)(F)F)ccn2)C1=O", "note": "(centres unmarked) [AA43]", "ABUTH (Abutilon theophrasti) damage score": 2, "ALOMY (Alopecurus myosuroides) damage score": 1, "AMARE (Amaranthus retroflexus) damage score": 2, "ECHCG (Echinochloa crus-galli) damage score": 5, "SETFA (Setaria faberi) damage score": 3, "ZEAMX (Zea mays) damage score": 1},
      {"smiles": "CC1=C(Cl)C(O)N(c2cc(C(C)(C)C)ccn2)C1=O", "note": "(centres unmarked) [AA44]", "ABUTH (Abutilon theophrasti) damage score": 1, "ALOMY (Alopecurus myosuroides) damage score": 1, "AMARE (Amaranthus retroflexus) damage score": 3, "ECHCG (Echinochloa crus-galli) damage score": 1, "SETFA (Setaria faberi) damage score": 2, "ZEAMX (Zea mays) damage score": 1},
      {"smiles": "CC1=C(Cl)C(O)N(c2cc(C(F)(F)F)c(C(=O)OC(C)(C)C)cn2)C1=O", "note": "(centres unmarked) [AA45]", "ABUTH (Abutilon theophrasti) damage score": 2, "ALOMY (Alopecurus myosuroides) damage score": 2, "AMARE (Amaranthus retroflexus) damage score": 3, "ECHCG (Echinochloa crus-galli) damage score": 1, "SETFA (Setaria faberi) damage score": 2, "ZEAMX (Zea mays) damage score": 1},
      {"smiles": "CC1=C(Cl)C(O)N(c2cc(C(F)(F)F)c(C(=O)NC(C)(C)C)cn2)C1=O", "note": "(centres unmarked) [AA46]", "ABUTH (Abutilon theophrasti) damage score": 5, "ALOMY (Alopecurus myosuroides) damage score": 3, "AMARE (Amaranthus retroflexus) damage score": 5, "ECHCG (Echinochloa crus-galli) damage score": 3, "SETFA (Setaria faberi) damage score": 3, "ZEAMX (Zea mays) damage score": 0},
      {"smiles": "CCOC(=O)c1cnc(N2C(=O)C(C)=C(Cl)C2O)cc1Cl", "note": "(centres unmarked) [AA47]", "ABUTH (Abutilon theophrasti) damage score": 1, "ALOMY (Alopecurus myosuroides) damage score": 1, "AMARE (Amaranthus retroflexus) damage score": 0, "ECHCG (Echinochloa crus-galli) damage score": 2, "SETFA (Setaria faberi) damage score": 3, "ZEAMX (Zea mays) damage score": 1},
      {"smiles": "CC1=C(Cl)C(O)N(c2cc(C)c(-c3ccsc3)cn2)C1=O", "note": "(centres unmarked) [AA48]", "ABUTH (Abutilon theophrasti) damage score": 4, "ALOMY (Alopecurus myosuroides) damage score": 1, "AMARE (Amaranthus retroflexus) damage score": 5, "ECHCG (Echinochloa crus-galli) damage score": 3, "SETFA (Setaria faberi) damage score": 4, "ZEAMX (Zea mays) damage score": 0},
      {"smiles": "CC1=C(Cl)C(O)N(c2cc(C(C)C)c(C(=O)NC(C)(C)C)cn2)C1=O", "note": "(centres unmarked) [AA49]", "ABUTH (Abutilon theophrasti) damage score": 3, "ALOMY (Alopecurus myosuroides) damage score": 2, "ECHCG (Echinochloa crus-galli) damage score": 1, "SETFA (Setaria faberi) damage score": 3, "ZEAMX (Zea mays) damage score": 0},
      {"smiles": "CCc1cc(N2C(=O)C(C)=C(Cl)C2O)ncc1Br", "note": "(centres unmarked) [AA50]", "ABUTH (Abutilon theophrasti) damage score": 3, "ALOMY (Alopecurus myosuroides) damage score": 2, "AMARE (Amaranthus retroflexus) damage score": 2, "ECHCG (Echinochloa crus-galli) damage score": 3, "SETFA (Setaria faberi) damage score": 3, "ZEAMX (Zea mays) damage score": 1},
      {"smiles": "CC1=C(Br)C(O)N(c2cc(C(F)(F)F)ccn2)C1=O", "note": "(centres unmarked) [AB1]", "ABUTH (Abutilon theophrasti) damage score": 3, "ALOMY (Alopecurus myosuroides) damage score": 2, "AMARE (Amaranthus retroflexus) damage score": 5, "ECHCG (Echinochloa crus-galli) damage score": 3, "SETFA (Setaria faberi) damage score": 4, "ZEAMX (Zea mays) damage score": 0},
      {"smiles": "COC1=C(C)C(=O)N(c2cc(C(F)(F)F)c(C(C)=O)cn2)C1O", "note": "(centres unmarked) [AD2, 1-[5-acetyl-4-(trifluoromethyl)-2-pyridyl]-2-hydroxy-3-methoxy-4-methyl-2H-pyrrol-5-one]", "ABUTH (Abutilon theophrasti) damage score": 5, "ALOMY (Alopecurus myosuroides) damage score": 5, "AMARE (Amaranthus retroflexus) damage score": 5, "ECHCG (Echinochloa crus-galli) damage score": 5, "SETFA (Setaria faberi) damage score": 5, "ZEAMX (Zea mays) damage score": 2},
      {"smiles": "COC1=C(C)C(=O)N(c2nccc(C(F)(F)F)c2C#N)C1O", "note": "(centres unmarked) [AD5]", "ABUTH (Abutilon theophrasti) damage score": 5, "ALOMY (Alopecurus myosuroides) damage score": 4, "AMARE (Amaranthus retroflexus) damage score": 5, "ECHCG (Echinochloa crus-galli) damage score": 4, "SETFA (Setaria faberi) damage score": 4, "ZEAMX (Zea mays) damage score": 2},
      {"smiles": "COC1=C(C)C(=O)N(c2nccc(C(F)(F)F)c2F)C1O", "note": "(centres unmarked) [AD7]", "ABUTH (Abutilon theophrasti) damage score": 5, "ALOMY (Alopecurus myosuroides) damage score": 5, "AMARE (Amaranthus retroflexus) damage score": 5, "ECHCG (Echinochloa crus-galli) damage score": 5, "SETFA (Setaria faberi) damage score": 5, "ZEAMX (Zea mays) damage score": 3},
      {"smiles": "COC1=C(C)C(=O)N(c2cc(C(F)(F)F)c(OC)cn2)C1O", "note": "(centres unmarked) [AD10, 2-hydroxy-3-methoxy-1-[5-methoxy-4-(trifluoromethyl)-2-pyridyl]-4-methyl-2H-pyrrol-5-one]", "ABUTH (Abutilon theophrasti) damage score": 5, "ALOMY (Alopecurus myosuroides) damage score": 5, "AMARE (Amaranthus retroflexus) damage score": 5, "ECHCG (Echinochloa crus-galli) damage score": 5, "SETFA (Setaria faberi) damage score": 5, "ZEAMX (Zea mays) damage score": 2},
      {"smiles": "CCC/C=C/c1cnc(N2C(=O)C(C)=C(OC)C2O)cc1C(F)(F)F", "note": "(centres unmarked) [AD13]", "ABUTH (Abutilon theophrasti) damage score": 5, "ALOMY (Alopecurus myosuroides) damage score": 5, "AMARE (Amaranthus retroflexus) damage score": 5, "ECHCG (Echinochloa crus-galli) damage score": 5, "SETFA (Setaria faberi) damage score": 5, "ZEAMX (Zea mays) damage score": 1},
      {"smiles": "COC1=C(C)C(=O)N(c2cc(C(F)(F)F)c(SC)cn2)C1O", "note": "(centres unmarked) [AD14, 2-hydroxy-3-methoxy-4-methyl-1-[5-methylsulfanyl-4-(trifluoromethyl)-2-pyridyl]-2H-pyrrol-5-one]", "ABUTH (Abutilon theophrasti) damage score": 5, "ALOMY (Alopecurus myosuroides) damage score": 3, "AMARE (Amaranthus retroflexus) damage score": 4, "ECHCG (Echinochloa crus-galli) damage score": 5, "SETFA (Setaria faberi) damage score": 5, "ZEAMX (Zea mays) damage score": 1},
      {"smiles": "COC1=C(C)C(=O)N(c2cc(C(F)(F)F)c(C#C[Si](C)(C)C)cn2)C1O", "note": "(centres unmarked) [AD15, 2-hydroxy-3-methoxy-4-methyl-1-[4-(trifluoromethyl)-5-(2-trimethylsilylethynyl)-2-pyridyl]-2H-pyrrol-5-one]", "ABUTH (Abutilon theophrasti) damage score": 3, "ALOMY (Alopecurus myosuroides) damage score": 3, "AMARE (Amaranthus retroflexus) damage score": 5, "ECHCG (Echinochloa crus-galli) damage score": 4, "SETFA (Setaria faberi) damage score": 5, "ZEAMX (Zea mays) damage score": 2},
      {"smiles": "COC1=C(C)C(=O)N(c2cc(C(C)F)ccn2)C1O", "note": "(centres unmarked) [AD18]", "ABUTH (Abutilon theophrasti) damage score": 4, "ALOMY (Alopecurus myosuroides) damage score": 3, "AMARE (Amaranthus retroflexus) damage score": 1, "ECHCG (Echinochloa crus-galli) damage score": 4, "SETFA (Setaria faberi) damage score": 1, "ZEAMX (Zea mays) damage score": 0},
      {"smiles": "C#Cc1cnc(N2C(=O)C(C)=C(OC)C2O)cc1C(F)(F)F", "note": "(centres unmarked) [AD20]", "ABUTH (Abutilon theophrasti) damage score": 4, "ALOMY (Alopecurus myosuroides) damage score": 4, "AMARE (Amaranthus retroflexus) damage score": 5, "ECHCG (Echinochloa crus-galli) damage score": 4, "SETFA (Setaria faberi) damage score": 5, "ZEAMX (Zea mays) damage score": 0},
      {"smiles": "COC1=C(C)C(=O)N(c2cc(C(F)(F)F)c(C=C(C)C)cn2)C1O", "note": "(centres unmarked) [AD21, 2-hydroxy-3-methoxy-4-methyl-1-[5-(2-methylprop-1-enyl)-4-(trifluoromethyl)-2-pyridyl]-2H-pyrrol-5-one]", "ABUTH (Abutilon theophrasti) damage score": 5, "ALOMY (Alopecurus myosuroides) damage score": 2, "AMARE (Amaranthus retroflexus) damage score": 5, "ECHCG (Echinochloa crus-galli) damage score": 5, "SETFA (Setaria faberi) damage score": 4, "ZEAMX (Zea mays) damage score": 0},
      {"smiles": "COC1=C(C)C(=O)N(c2nccc(C(F)(F)F)c2Br)C1O", "note": "(centres unmarked) [AD25]", "ABUTH (Abutilon theophrasti) damage score": 1, "ALOMY (Alopecurus myosuroides) damage score": 1, "AMARE (Amaranthus retroflexus) damage score": 2, "ECHCG (Echinochloa crus-galli) damage score": 1, "SETFA (Setaria faberi) damage score": 2, "ZEAMX (Zea mays) damage score": 1},
      {"smiles": "COC1=C(C)C(=O)N(c2cc(C(F)(F)F)c(C#N)cn2)C1O", "note": "(centres unmarked) [AD26, 6-(2-hydroxy-3-methoxy-4-methyl-5-oxo-2H-pyrrol-1-yl)-4-(trifluoromethyl)pyridine-3-carbonitrile]", "ABUTH (Abutilon theophrasti) damage score": 5, "ALOMY (Alopecurus myosuroides) damage score": 4, "AMARE (Amaranthus retroflexus) damage score": 5, "ECHCG (Echinochloa crus-galli) damage score": 5, "SETFA (Setaria faberi) damage score": 4, "ZEAMX (Zea mays) damage score": 2},
      {"smiles": "C=Cc1cnc(N2C(=O)C(C)=C(OC)C2O)cc1C(F)(F)F", "note": "(centres unmarked) [AD27]", "ABUTH (Abutilon theophrasti) damage score": 5, "ALOMY (Alopecurus myosuroides) damage score": 4, "AMARE (Amaranthus retroflexus) damage score": 5, "ECHCG (Echinochloa crus-galli) damage score": 5, "SETFA (Setaria faberi) damage score": 4, "ZEAMX (Zea mays) damage score": 2},
      {"smiles": "COC1=C(C)C(=O)N(c2cc(C(F)(F)F)c(C)cn2)C1O", "note": "(centres unmarked) [AD28]", "ABUTH (Abutilon theophrasti) damage score": 5, "ALOMY (Alopecurus myosuroides) damage score": 4, "AMARE (Amaranthus retroflexus) damage score": 5, "ECHCG (Echinochloa crus-galli) damage score": 5, "SETFA (Setaria faberi) damage score": 5, "ZEAMX (Zea mays) damage score": 4},
      {"smiles": "COC1=C(C)C(=O)N(c2ncc(Br)c(C(F)(F)F)c2Br)C1O", "note": "(centres unmarked) [AD29]", "ABUTH (Abutilon theophrasti) damage score": 0, "ALOMY (Alopecurus myosuroides) damage score": 1, "AMARE (Amaranthus retroflexus) damage score": 0, "ECHCG (Echinochloa crus-galli) damage score": 0, "SETFA (Setaria faberi) damage score": 0, "ZEAMX (Zea mays) damage score": 1}
    ]}
  ]
}
